Data on two molecules can be found in patent US20070185095A1, “Fused heterocyclic compounds and their use as metabotropic glutamate receptor antagonists” (AstraZeneca AB, priority 2004, published 2007).

This test has as its target T1, human mGluR5d (Homo sapiens, UniProt P41594).
T1 construct: expressed in transfected cells
As to the kind of experiment: FLIPR assay of [Ca2+]i mobilization in cells expressing human mGluR5d (Group I receptor antagonist activity). The settings on record: antagonist block of agonist challenge. It counts as cell-based. From the text: The pharmacological properties of the compounds of the invention can be analyzed using standard assays for functional activity. Examples of glutamate receptor assays are well known in the art as described in for example Aramori et al., Neuron 8:757 (1992), Tanabe et al., Neuron 8:169 (1992), Miller et al., J. Neuroscience 15: 6103 (1995), Balazs, et al., J. Neurochemistry 69:151 (1997). The methodology described in these publications is incorporated herein by reference. Conveniently, the compounds of the invention can be studied by means of an assay that measures the mobilization of intracellular calcium, [Ca^2+]i in cells expressing mGluR5. […]
FLIPR experiments were done using a laser setting of 0.800 W and a 0.4 second CCD camera shutter speed. […] After each addition of the compound, the fluorescence signal was sampled 50 times at 1 second intervals followed by 3 samples at 5 second intervals. Responses were measured as the peak height of the response within the sample period. […]
For FLIPR analysis, cells expressing human mGluR5d as described in WO97/05252 were seeded on collagen coated clear bottom 96-well plates with black sides and analysis of [Ca^2+]i mobilization was performed 24 h following seeding. […] After each addition the fluorescence signal was sampled 50 times at 1 second intervals followed by 3 samples at 5 second intervals. […]

T1 sequence (P41594 21-942 isoform P41594-3 limits assumed): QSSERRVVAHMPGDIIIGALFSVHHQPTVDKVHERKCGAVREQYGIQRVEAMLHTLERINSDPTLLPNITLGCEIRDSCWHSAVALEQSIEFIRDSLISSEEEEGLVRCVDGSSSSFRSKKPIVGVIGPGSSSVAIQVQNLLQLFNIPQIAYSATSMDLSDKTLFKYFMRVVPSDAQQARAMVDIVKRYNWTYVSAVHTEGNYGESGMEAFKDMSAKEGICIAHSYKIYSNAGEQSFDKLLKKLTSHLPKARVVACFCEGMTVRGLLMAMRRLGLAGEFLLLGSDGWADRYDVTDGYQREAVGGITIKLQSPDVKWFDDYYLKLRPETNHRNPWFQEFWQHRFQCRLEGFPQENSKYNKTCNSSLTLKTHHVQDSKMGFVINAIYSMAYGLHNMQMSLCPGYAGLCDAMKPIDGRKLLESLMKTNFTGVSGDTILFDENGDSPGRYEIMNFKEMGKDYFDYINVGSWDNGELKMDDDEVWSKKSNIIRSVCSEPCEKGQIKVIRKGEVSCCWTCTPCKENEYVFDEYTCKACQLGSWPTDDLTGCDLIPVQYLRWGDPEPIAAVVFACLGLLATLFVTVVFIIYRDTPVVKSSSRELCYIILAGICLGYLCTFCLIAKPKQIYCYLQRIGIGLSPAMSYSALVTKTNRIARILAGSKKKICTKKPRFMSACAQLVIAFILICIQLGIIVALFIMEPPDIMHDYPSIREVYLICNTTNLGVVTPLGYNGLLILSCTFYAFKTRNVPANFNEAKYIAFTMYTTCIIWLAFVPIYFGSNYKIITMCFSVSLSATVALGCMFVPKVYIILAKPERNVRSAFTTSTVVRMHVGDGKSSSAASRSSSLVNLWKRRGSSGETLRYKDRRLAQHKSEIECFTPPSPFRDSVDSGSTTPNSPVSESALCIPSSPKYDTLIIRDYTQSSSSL

As to `CC(c1noc(-c2cccc(Cl)c2)n1)N1CCCCn2c(-c3ccncc3)nnc21` (centres unmarked) [9-{1-[5-(3-chlorophenyl)-1,2,4-oxadiazol-3-yl]ethyl}-3-pyridin-4-yl-6,7,8,9-tetrahydro-5H-[1,2,4]triazolo[4,3-a][1,3]diazepine], the IC50 (commonly the concentration that inhibits the measured activity by half) amounted to 81 nM.

In turn, `Clc1cccc(-c2nc(CC3CCn4c(-c5ccncc5)nnc43)no2)c1` (centres unmarked) [7-{[5-(3-chlorophenyl)-1,2,4-oxadiazol-3-yl]methyl}-3-pyridin-4-yl-6,7-dihydro-5H-pyrrolo[2,1-c][1,2,4]triazole] showed a 50% inhibitory concentration (IC50) of 49 nM.
